For assay [1], the target named is anti-CD28 scFv (SEQ ID NO: 9). Description: Kinetic binding of anti-CD28 scFv to peptides, bio-layer interferometry (Octet RED96). The following applies: 200 nM peptide loaded. Here is the method: (§1) Briefly, streptavidin biosensors were loaded with biotinylated peptides and baselined in buffer. […] After a short association period, sensors were transferred into buffer and the dissociation of bound anti-CD28 scFv was measured. The timing and steps of the experiment are shown in the accompanying table. Association and dissociation signals were recorded in real time and analyzed using a 1:1 binding model within the instrument software. Analysis using a 1:1 binding model enabled the calculation of the on and off rate constants as well as affinity, KD.
Sequence of anti-CD28 scFv (SEQ ID NO: 9) (as listed by the source): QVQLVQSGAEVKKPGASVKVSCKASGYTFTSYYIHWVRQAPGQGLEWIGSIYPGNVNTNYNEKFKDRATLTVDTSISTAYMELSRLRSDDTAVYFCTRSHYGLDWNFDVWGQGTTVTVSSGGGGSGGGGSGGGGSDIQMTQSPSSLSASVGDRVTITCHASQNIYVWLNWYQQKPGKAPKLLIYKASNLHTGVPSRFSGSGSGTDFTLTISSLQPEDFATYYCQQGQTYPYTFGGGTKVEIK
as §1, with “KD. FIGS. 70A-70F illustrate kinetic binding of anti-CD28 scFv binding to peptides as measured by Octet. FIGS. 70G-70U illustrate kinetic binding of peptides to the anti-CD28 scFv as measured by Octet.” for “KD.”
On the technique in general: Biolayer interferometry detects binding as a change in optical thickness at a sensor tip.

A further assay deals with PSMA Fab. Put plainly: Phage binding ELISA, PSMA Fab, with or without PSMA antigen (peptide-179 and peptide-180 libraries). The following applies: peptide-180 library clonal phage; background (no Fab). Here is the method:
(§2) Once the phage optimization libraries were completed, phage libraries were bio-panned using PSMA Fab loaded beads. Multiple rounds of panning were performed where bacteriophage was allowed to bind to PSMA Fab loaded beads. washed. eluted, and amplified. After panning, phage infected bacteria were plated out and colonies picked into 96 well blocks. Clonal phage was then amplified and separated from bacterial cells via centrifugation. Phage containing supemnatants were tested in binding ELISAs against PSMA Fab coated plates in the presence or absence of saturating concentrations of PSMA antigen. Phage able to bind PSMA Fab were selected for sequence analysis if the binding signal was reduced in the presence of PSMA.
Clonal phage were harvested as crude supernatants and screened via standard ELISAs. Briefly, biotinylated PSMA Fab was captured on neutravidin coated plates. Prior to the addition of clonal phage. wells were incubated with blocking buffer and PSMA antigen or blocking buffer alone. Without washing or aspirating, clonal phage supernatants were then added to the wells and incubated for a short time. Wells were then washed followed by detection of bound phage using a horse radish conjugated anti-M13 antibody. Clonal phage of interest were then sent for sequence analysis.
as §2, with “beads, washed,” for “beads. washed.”, “supernatants” for “supemnatants”

Where [2] appears, read: Table 36, anti-CD28 scFv titrated 100-12.5 nM.
Where [3] appears, read: Table 34, CD28 scFv titrated 100-12.5 nM.

Where no end group is shown, it is not given here.

Sequence of PSMA Fab (as listed by the source): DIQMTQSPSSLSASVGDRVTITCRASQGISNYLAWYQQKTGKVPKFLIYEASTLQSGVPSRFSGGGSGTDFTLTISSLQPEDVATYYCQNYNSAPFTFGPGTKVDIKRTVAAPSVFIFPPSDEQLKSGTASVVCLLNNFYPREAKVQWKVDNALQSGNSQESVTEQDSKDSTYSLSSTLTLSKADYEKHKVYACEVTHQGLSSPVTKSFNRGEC
Sequence of PSMA Fab (as listed by the source): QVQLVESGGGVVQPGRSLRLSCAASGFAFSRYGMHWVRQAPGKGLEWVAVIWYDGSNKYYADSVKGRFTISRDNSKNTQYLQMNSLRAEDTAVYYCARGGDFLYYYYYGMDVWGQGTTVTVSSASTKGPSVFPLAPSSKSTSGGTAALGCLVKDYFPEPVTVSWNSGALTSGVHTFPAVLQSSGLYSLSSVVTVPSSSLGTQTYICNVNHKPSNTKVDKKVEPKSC

For orientation: Kd means the constant that tells how readily two partners part at equilibrium. A lower Kd goes with tighter binding. A word on the kon: it is the second-order rate constant of association. A low value points to slower complex formation. MDWCPRDMWSVCFS [Peptide-44]: in assay [1] (setting [2]), the affinity, expressed as Kd, was 374 nM; the kdis came out at 0.00812 s⁻¹; the kon turned out to be 21700 M⁻¹ s⁻¹. In assay [1] (setting [2]), MDWCPIDLWNECFF [Peptide-31] came in with an equilibrium dissociation constant (Kd) of 71.8 nM, a kdis of 0.00369 s⁻¹ and a kon of 51400 M⁻¹ s⁻¹.

In the case of MDWCPRDLWSECFF [Peptide-40], in assay [1] (setting [2]), the Kd was 79.9 nM, the kdis was determined as 0.0031 s⁻¹ and the kon was found to be 38800 M⁻¹ s⁻¹.

As to “Phage-2842 (PEVMCRPVWMCLGF; not fully specified; cysteine pairing not given here)”, the “Phage binding ELISA Background signal” value in the assay with PSMA Fab amounted to 0.0609. Consider Phage-2800 (DYKWCTPPWMCDSR), for which the “Phage binding ELISA Background signal” value in the assay on PSMA Fab worked out at 0.0795. On to Phage-2811 (VPKWCTPSWMCEFT), for which, in the assay with PSMA Fab, the “Phage binding ELISA Background signal” value was 0.0593. With Phage-2866 (TSPACVPSWMCVGF), the “Phage binding ELISA Background signal” value with PSMA Fab was 0.0552.

On to MDWCPRDLWDLCFA [Peptide-37], for which, in assay [1] (setting [2]), the Kd turned out to be 97.8 nM, the kdis came out at 0.00351 s⁻¹ and the kon came to 35900 M⁻¹ s⁻¹. “Phage-2840 (EPQWCIPKWMCDHM; not fully specified; cysteine pairing not given here)”: the “Phage binding ELISA Background signal” value in the assay on PSMA Fab is on record as 0.0612. Still for that read-out and setting: the figure for “Phage-2841 (ESIRCTPAWMCVEM; not fully specified; cysteine pairing not given here)” is 0.0625; for Phage-2868 (EPIRCVPQWMCVGF) it is 0.0882. For MDWCPRERWVDCFF [Peptide-9], in assay [1] (setting [3]), the kdis came out at 0.0123 s⁻¹ and the kon came out at 32500 M⁻¹ s⁻¹. In assay [1] (setting [2]), this substance came in with a Kd of 278 nM, a kdis of 0.0115 s⁻¹ and a kon of 41500 M⁻¹ s⁻¹. For Phage-2864 (IETWCVPRWMCEGF), the “Phage binding ELISA Background signal” value with PSMA Fab amounted to 0.0693. For Phage-2787 (LWKSCTPEWMCAEW), the “Phage binding ELISA Background signal” value with PSMA Fab worked out at 0.0888. Still for that read-out and setting: the figure for Phage-2808 (MEKWCTPRWMCVGM) is 0.0767; for “Phage-2838 (HPKLCTPEWMCVIQ; not fully specified; cysteine pairing not given here)” it is 0.0666. For MDWCPRSLWHECFA [Peptide-47], in assay [1] (setting [2]), binding was characterised by a dissociation constant (Kd) of 51.8 nM, the kdis was 0.00201 s⁻¹ and the kon stood at 38900 M⁻¹ s⁻¹. Take MDWCPLYLWNECFN [Peptide-36]: in assay [1] (setting [2]), the affinity, expressed as Kd, was 68.7 nM; the kdis turned out to be 0.00252 s⁻¹; the kon turned out to be 36700 M⁻¹ s⁻¹. Take Phage-2791 (WEKWCTPSWMCSGI): in the assay on PSMA Fab, the “Phage binding ELISA Background signal” value was 0.0564.

MHWCPVDLWYLCYN [Peptide-49]: in assay [1] (setting [2]), binding was put at a Kd of 21.1 nM, the kdis was found to be 0.00186 s⁻¹ and the kon was determined as 88200 M⁻¹ s⁻¹. On to Phage-2795 (FEKWCTPQWMCNSM), for which, in the assay with PSMA Fab, the “Phage binding ELISA Background signal” value came out at 0.0569. Turning to “Phage-2837 (VDRWCTPPWMCDWQ; cysteine pairing not given here; also: large carrier left off)”, the “Phage binding ELISA Background signal” value in the assay with PSMA Fab came out at 0.0583. Consider MDWCPRDLWHECFA [Peptide-38], for which, in assay [1] (setting [2]), the Kd came to 92.3 nM, the kdis was 0.00277 s⁻¹ and the kon was 30000 M⁻¹ s⁻¹. Phage-2810 (MDIWCKPRWMCEEY): in the assay on PSMA Fab, the “Phage binding ELISA Background signal” value is reported as 0.0644. The same measure, in the same setting: the figure for “Phage-2858 (TQAMCKPAWMCQGF; not fully specified; cysteine pairing not given here)” is 0.0585. In assay [1] (setting [2]), MDWCPIHLWHVCFN [Peptide-32] returned a Kd of 49.9 nM, a kdis of 0.00295 s⁻¹ and a kon of 59100 M⁻¹ s⁻¹.

Consider Phage-2803 (VKHVCMPEWMCYWS), for which, in the assay on PSMA Fab, the “Phage binding ELISA Background signal” value came to 0.0652. Turning to “Phage-2857 (LERACVPSWMCTGF; not fully specified; cysteine pairing not given here)”, the “Phage binding ELISA Background signal” value in the assay on PSMA Fab amounted to 0.0649. With “Phage-2849 (VFPICKPSWMCVGM; not fully specified; cysteine pairing not given here)”, the “Phage binding ELISA Background signal” value in the assay with PSMA Fab amounted to 0.0918. Take “Phage-2836 (DWKLCKPTWMCESL; not fully specified; cysteine pairing not given here)”: the “Phage binding ELISA Background signal” value in the assay with PSMA Fab is listed as 0.0582.

For “Phage-2863 (FNVMCRPAWMCDFL; not fully specified; cysteine pairing not given here)”, the “Phage binding ELISA Background signal” value with PSMA Fab was found to be 0.1545. As for “Phage-2855 (WEMKCIPEWMCRGF; cysteine pairing not given here; also: large carriers left off)”, in the assay on PSMA Fab, the “Phage binding ELISA Background signal” value was determined as 0.0794. Same read-out and setting: the value for “Phage-2850 (VNIRCEPAWMCMGF; not fully specified; cysteine pairing not given here)” was 0.0727; that for Phage-2807 (WENWCIPQWMCGTA) was 0.1629.

For the substance Phage-2797 (ERIWCTPKWMCETF), the “Phage binding ELISA Background signal” value with PSMA Fab came out at 0.0696. Same read-out and setting: the value for Phage-2814 (PMKWCTPPWMCSYS) was 0.0793; that for “Phage-2839 (DSHWCMPVWMCMGL; not fully specified; cysteine pairing not given here)” was 0.0737. On to Phage-2804 (EGKWCTPTWMCQGF), for which the “Phage binding ELISA Background signal” value in the assay with PSMA Fab is given as 0.0669.

As for Phage-2816 (GDKWCKPSWMCDFF), the “Phage binding ELISA Background signal” value in the assay with PSMA Fab is on record as 0.0602.

Phage-2790 (VMKWCTPSWMCAEA): the “Phage binding ELISA Background signal” value in the assay on PSMA Fab was 0.067. The same measure, in the same setting: the figure for “Phage-2848 (VMTVCKPAWMCTGF; not fully specified; cysteine pairing not given here)” is 0.1338; for Phage-2812 (VGPWCIPDWMCDVV) it is 0.0572. In the case of Phage-2796 (LNNWCTPAWMCVGY), the “Phage binding ELISA Background signal” value in the assay with PSMA Fab is reported as 0.0697. Take “Phage-2845 (WDMLCRPAWMCEGF; not fully specified; cysteine pairing not given here)”: in the assay with PSMA Fab, the “Phage binding ELISA Background signal” value came to 0.0711. Phage-2794 (TEKWCIPQWMCVRT): the “Phage binding ELISA Background signal” value with PSMA Fab worked out at 0.056. The same measure, in the same setting: the value for Phage-2817 (EAKWCTPPWMCSLV) was 0.0615; that for Phage-2789 (VGKWCTPEWMCSGF) was 0.058. In the case of Phage-2813 (FSKLCTPPWMCSVS), the “Phage binding ELISA Background signal” value in the assay on PSMA Fab is recorded as 0.0586. On the same count and under the same terms, the figure for “Phage-2846 (WEVRCVPEWMCVGF; not fully specified; cysteine pairing not given here)” is 0.0615; for Phage-2818 (SVHMCKPPWMCQSM) it is 0.0587; for “Phage-2859 (WEFVCKPEWMCTGF; not fully specified; cysteine pairing not given here)” it is 0.0551. The same measure, in the same setting: the figure for Phage-2809 (VTKLCIPEWMCVIQ) is 0.0543. Same read-out and setting: the value for “Phage-2852 (VMPLCKPAWMCGGF; not fully specified; cysteine pairing not given here)” was 0.0869; that for Phage-2802 (TPKWCTPAWMCVVS) was 0.0829. Take Phage-2806 (GATWCTPTWMCTGF): the “Phage binding ELISA Background signal” value in the assay on PSMA Fab is listed as 0.0609. Same read-out and setting: the figure for Phage-2865 (MSPLCKPVWMCAGF) is 0.0586. As for “Phage-2861 (WDRLCIPAWMCSGF; not fully specified; cysteine pairing not given here)”, the “Phage binding ELISA Background signal” value in the assay with PSMA Fab amounted to 0.0903. Same read-out and setting: the figure for Phage-2805 (MMHWCTPPWMCEFS) is 0.0597; for Phage-2867 (VLPMCSPPWMCIGL) it is 0.0631.

The values above are taken from patent publication US20260242478A1, “ANTIBODIES FOR TARGETING PSMA AND CD28 AND USES THEREOF” (Janux Therapeutics, Inc., priority 2023, published 2026).
